Data as given in patent US11033569B2, “Compounds,Compositions, and methods for the treatment of disease” (Sperovie Biosciences, Inc., priority 2016, dated 2021).
Entries after “also recorded” stand apart in the source; their conditions may differ. Like-named read-outs stand apart in the source and are kept apart here.

How the values were obtained:
[1] = tested on: ISG54 ISRE-luc reporter; assay: ISG54 ISRE-luc reporter activation in HEK293 (SZ14) cells, screen for STING agonists; type: cell-based; details: digitonin buffer, 5 hours, read-out: IRF EC50
Method: (§1) ISG54 or NF-κβ activity was determined using the Steady-glo buffer system (Promega), and are expressed as EC50 values summarized in Table 3 below. […] This calculation is applicable for compounds with enzyme inhibition activity, as the baseline for an untreated sample may be set at 100% enzymatic activity, and therefore % inhibition is evaluated based on this 100% maximal basis. For these studies, the EC50 value relates to the concentration required to achieve a value 50% activity level above the untreated sample set at 0%.
(§2) Data are shown as fold induction over cells that received DMSO (compound carrier) alone as the mean, +/−standard deviation of duplicate wells per stimulant.

[2] = tested on: NF-κβ-luc reporter; assay: NF-κβ-luc reporter activation in HEK293 (SZ14) cells, screen for STING agonists; type: cell-based; details: digitonin buffer, 5 hours, read-out: NF-KB EC50
Method: as §1, §2

[3] = tested on: human monocytes; assay: Activity in human monocytes; type: cell-based; details: human monocytes (FIG. 36A)
[4] = tested on: mouse macrophages; assay: Type I IFN signaling in mouse macrophages; type: cell-based; details: mouse macrophages (FIG. 36B)
Method: Activity of secreted luciferase in cell culture supernatant was measured using Invivogen Quanti-luc. Data are shown as fold induction over DMSO treated cells (mean±standard deviation of triplicate wells per stimulant).

[5] = tested on: CT26 colon cancer; assay: Syngeneic CT26 colon cancer mouse model; type: in vivo; details: intratumoral administration
[6] = tested on: A20 lymphoma; assay: Syngeneic A20 lymphoma mouse model; type: in vivo; details: monotherapy; for tumor growth: compared with vehicle
[7] = tested on: THP1 cells; assay: Type III IFN (IL-29) production in THP1 cells (ELISA); type: cell-based; details: 21 hrs
Method: Level of IL-29 in culture supernatant was determined using ELISA. Results shown are the average±standard deviation of duplicate wells.

[8] = tested on: THP1 cells and PBMCs; assay: Gene expression of ISGs and PRRs in THP1 and PBMCs (real time PCR); type: cell-based; details: 5 uM, Lipofectamine LTX, 20 h
Method: (§3) After incubation for 20 h, RNA was extracted and gene expression of different Interferon Stimulated Genes (ISGs) and various Pattern Recognition Receptors (PRRs) was evaluated by real time PCR. Fold Induction was calculated by ΔΔct method.
as §3

[9] = vs vehicle, vehicle and Ethanol (FIG. 80)

| SMILES | EC50 [1] [nM] | EC50 [2] [nM] | further results |
| --- | --- | --- | --- |
| CCCCCCCCCCOc1ccc(Oc2ccc(CSP3(=O)OC[C@H]4O[C@@H](n5cnc6c(N)ncnc65)[C@H](F)[C@@H]4OP(=O)(O)OC[C@H]4O[C@@H](n5ccc(=O)[nH]c5=O)[C@H](F)[C@@H]4O3)cc2)cc1 (some centres unmarked) [Cmd 29] | 50 to 500 | 500 to 1000 |  |
| CCCCCCCCCCOc1ccc(C(=O)Oc2ccc(CS[P@@]3(=O)OC[C@H]4O[C@@H](n5cnc6c(N)ncnc65)[C@H](F)[C@@H]4OP(=O)(O)OC[C@H]4O[C@@H](n5ccc(=O)[nH]c5=O)[C@H](F)[C@@H]4O3)cc2)cc1 (single isomer, unassigned) [Cmd 1B] | < 50 | 50 to 500 |  |
| CCCCCCCCCCCC(=O)Oc1ccc(CSP2(=O)OC[C@H]3O[C@@H](n4cnc5c(N)ncnc54)[C@H](F)[C@@H]3OP(=O)(O)OC[C@H]3O[C@@H](n4ccc(=O)[nH]c4=O)[C@H](F)[C@@H]3O2)cc1.N (some centres unmarked) [Cmd 13] | < 50 | 50 to 500 | activity relative to natural STING ligand 3′,3′-cGAMP [3]: more active; activity relative to natural STING ligand 3′,3′-cGAMP [4]: more active |
| CCCCCCCCCCOc1ccc(C(=O)Oc2ccc(CSP3(=O)OC[C@H]4O[C@@H](n5cnc6c(N)ncnc65)[C@H](F)[C@@H]4OP(=O)(O)OC[C@H]4O[C@@H](n5ccc(=O)[nH]c5=O)[C@H](F)[C@@H]4O3)cc2)c(C)c1 (some centres unmarked) [Cmd 25] | < 50 | 50 to 500 | tumor growth ([5]; vs vehicle (FIG. 79)): considerable tumor growth inhibition; tumor growth [5, 9]: considerable tumor growth inhibition |
| CCCCCCCCCCOC(=O)Oc1ccc(CSP2(=O)OC[C@H]3O[C@@H](n4cnc5c(N)ncnc54)[C@H](F)[C@@H]3OP(=O)(O)OC[C@H]3O[C@@H](n4ccc(=O)[nH]c4=O)[C@H](F)[C@@H]3O2)cc1 (some centres unmarked) [Cmd 26] | < 50 | < 50 |  |
| CCCCCCCCCCCCOc1ccc(C(=O)Oc2ccc(CS[P@@]3(=O)OC[C@H]4O[C@@H](n5cnc6c(N)ncnc65)[C@H](F)[C@@H]4OP(=O)(O)OC[C@H]4O[C@@H](n5ccc(=O)[nH]c5=O)[C@H](F)[C@@H]4O3)cc2)cc1 [Cmd 22] | < 50 | 50 to 500 |  |
| CO[C@@H]1[C@@H]2OP(=O)(S)OC[C@H]3O[C@@H](n4cnc5c(N)ncnc54)C[C@@H]3OP(=O)(S)OC[C@H]2O[C@H]1n1ccc(=O)[nH]c1=O (some centres unmarked) [Cmd 17] |  |  | EC50 ([1]; Homo sapiens): > 2000 nM; EC50 ([2]; Homo sapiens): > 2000 nM |
| CCCCCCCCOc1ccc(C(=O)Oc2ccc(CSP3(=O)OC[C@H]4O[C@@H](n5cnc6c(N)ncnc65)[C@H](F)[C@@H]4OP(=O)(O)OC[C@H]4O[C@@H](n5ccc(=O)[nH]c5=O)[C@H](F)[C@@H]4O3)cc2)cc1.N (some centres unmarked) [Cmd 12] | < 50 | < 50 | activity relative to natural STING ligand 3′,3′-cGAMP [3]: more active; activity relative to natural STING ligand 3′,3′-cGAMP [4]: more active |
| CCCCCCCCCCOc1ccc(C(=O)Oc2ccc(CS[P@]3(=O)OC[C@H]4O[C@@H](n5cnc6c(N)ncnc65)[C@H](F)[C@@H]4OP(=O)(O)OC[C@H]4O[C@@H](n5ccc(=O)[nH]c5=O)[C@H](F)[C@@H]4O3)cc2)cc1.N (single isomer, unassigned) [Cmd 1A] | < 50 | 50 to 500 | survival rate [6]: significantly improve the survival rate; tumor growth [6]: inhibit mouse A20 B cell lymphoma tumor cells |
| CCCCCCCCCCNC(=O)Oc1ccc(CSP2(=O)OC[C@H]3O[C@@H](n4cnc5c(N)ncnc54)[C@H](F)[C@@H]3OP(=O)(O)OC[C@H]3O[C@@H](n4ccc(=O)[nH]c4=O)[C@H](F)[C@@H]3O2)cc1 (some centres unmarked) [Cmd 32] | 50 to 500 | 50 to 500 |  |
| CCCCCCCCCCCCOc1ccc(C(=O)Oc2ccc(CSP3(=O)OC[C@H]4O[C@@H](n5cnc6c(N)ncnc65)[C@H](F)[C@@H]4OP(=O)(O)OC[C@H]4O[C@@H](n5ccc(=O)[nH]c5=O)[C@H](F)[C@@H]4O3)cc2)cc1.N (some centres unmarked) [Cmd 15] | < 50 | < 50 | activity relative to natural STING ligand 3′,3′-cGAMP [3]: more active; type III interferon (IL-29) production [7]: induce type III interferon (IL-29) production; activity relative to natural STING ligand 3′,3′-cGAMP [4]: more active |
| Nc1nc2c(ncn2[C@@H]2O[C@@H]3COP(=O)(S)O[C@H]4[C@@H](O)[C@H](n5cnc6c(=O)[nH]c(N)nc65)O[C@@H]4COP(=O)(S)O[C@H]3[C@H]2O)c(=O)[nH]1 (some centres unmarked) [Cmd 18] |  |  | EC50 ([1]; Homo sapiens): > 2000 nM; EC50 ([2]; Homo sapiens): > 2000 nM |
| CCCCCCCCCCOc1ccc(C(=O)NCc2ccc(CSP3(=O)OC[C@H]4O[C@@H](n5cnc6c(N)ncnc65)[C@H](F)[C@@H]4OP(=O)(O)OC[C@H]4O[C@@H](n5ccc(=O)[nH]c5=O)[C@H](F)[C@@H]4O3)cc2)cc1 (some centres unmarked) [Cmd 31] | 500 to 1000 | > 2000 |  |
| CCCCCCCCCCOc1ccc(C(=O)Oc2ccc(CSP3(=O)OC[C@H]4O[C@@H](n5cnc6c(N)ncnc65)C[C@@H]4OP(=O)(SCc4ccc(OC(=O)c5ccc(OCCCCCCCCCC)cc5)cc4)OC[C@H]4O[C@@H](n5ccc(=O)[nH]c5=O)[C@H](OC)[C@@H]4O3)cc2)cc1 (some centres unmarked) [Cmd 20] | > 2000 | > 2000 |  |
| Nc1ncnc2c1ncn2[C@@H]1O[C@@H]2COP(=O)(S)O[C@H]3[C@@H](F)[C@H](n4ccc(=O)[nH]c4=O)O[C@@H]3COP(=O)(S)O[C@H]2[C@H]1F (some centres unmarked) [Cmd 2] |  |  | EC50 ([1]; Homo sapiens): 1000 to 2000 nM; EC50 ([2]; Homo sapiens): > 2000 nM |
| N.N.Nc1ncnc2c1ncn2[C@@H]1O[C@@H]2COP(=O)(S)O[C@H]3[C@@H](F)[C@H](n4ccc(=O)[nH]c4=O)O[C@@H]3COP(=O)(O)O[C@H]2[C@H]1F (some centres unmarked) [Cmd 21] |  |  | survival rate [6]: significantly improve the survival rate; tumor growth [6]: considerable tumor growth inhibition; also recorded: inhibit mouse A20 B cell lymphoma tumor cells; tumor growth ([5]; vs vehicle (FIG. 79)): considerable tumor growth inhibition; tumor growth [5, 9]: considerable tumor growth inhibition; EC50 ([1]; Homo sapiens): 500 to 1000 nM; EC50 ([2]; Homo sapiens): > 2000 nM |
| CCCCCCCCCCOc1ccc(C(=O)Oc2ccc(CSP3(=O)OC[C@H]4O[C@@H](n5cnc6c(N)ncnc65)[C@H](F)[C@@H]4OP(=O)(SCc4ccc(OC(=O)c5ccc(OCCCCCCCCCC)cc5)cc4)OC[C@H]4O[C@@H](n5ccc(=O)[nH]c5=O)[C@H](F)[C@@H]4O3)cc2)cc1 (some centres unmarked) [Cmd 4] | 1000 to 2000 | > 2000 | induction of ISG and PRR-associated genes, THP1 compared to PBMCs [8]: Enhanced Activity |
| CCCCCCCCCCCCOc1ccc(C(=O)Oc2ccc(CS[P@]3(=O)OC[C@H]4O[C@@H](n5cnc6c(N)ncnc65)[C@H](F)[C@@H]4OP(=O)(O)OC[C@H]4O[C@@H](n5ccc(=O)[nH]c5=O)[C@H](F)[C@@H]4O3)cc2)cc1 [Cmd 23] | < 50 | 50 to 500 |  |
| CC(C)OC(=O)OCSP1(=O)OC[C@H]2O[C@@H](n3cnc4c(N)ncnc43)[C@H](F)[C@@H]2OP(=O)(O)OC[C@H]2O[C@@H](n3ccc(=O)[nH]c3=O)[C@H](F)[C@@H]2O1.N (some centres unmarked) [Cmd 5] | > 2000 | > 2000 | activity relative to natural STING ligand 3′,3′-cGAMP [3]: more active; activity relative to natural STING ligand 3′,3′-cGAMP [4]: more active |
| CCCCCCCCCCOc1ccc(C(=O)Nc2ccc(CSP3(=O)OC[C@H]4O[C@@H](n5cnc6c(N)ncnc65)[C@H](F)[C@@H]4OP(=O)(O)OC[C@H]4O[C@@H](n5ccc(=O)[nH]c5=O)[C@H](F)[C@@H]4O3)cc2)cc1 (some centres unmarked) [Cmd 30] | 500 to 1000 | > 2000 |  |
| CCCCCCOc1ccc(C(=O)Oc2ccc(CSP3(=O)OC[C@H]4O[C@@H](n5cnc6c(N)ncnc65)[C@H](F)[C@@H]4OP(=O)(O)OC[C@H]4O[C@@H](n5ccc(=O)[nH]c5=O)[C@H](F)[C@@H]4O3)cc2)cc1.N (some centres unmarked) [Cmd 14] | < 50 | < 50 | activity relative to natural STING ligand 3′,3′-cGAMP [3]: more active; activity relative to natural STING ligand 3′,3′-cGAMP [4]: more active |
